Results from patent US8030453B2, “Methods of making an antibody that binds a chemerin polypeptide” (Euroscreen S.A., priority 2001, dated 2011).
Read-outs that look alike come from different tables or passages of the source. Peptide text beside a SMILES is read from it.

Target: T1, human ChemerinR (ChemR23) expressed in CHO-K1 cells (Homo sapiens, UniProt Q99788)
T1 construct: This fragment was subcloned into the pcDNA3 (Invitrogen) vector; expressed in transfected cells; host or cells: CHO-K1 (co-expressing mitochondrial apoaequorin and Galpha16)
T1 sequence (Q99788 3-373): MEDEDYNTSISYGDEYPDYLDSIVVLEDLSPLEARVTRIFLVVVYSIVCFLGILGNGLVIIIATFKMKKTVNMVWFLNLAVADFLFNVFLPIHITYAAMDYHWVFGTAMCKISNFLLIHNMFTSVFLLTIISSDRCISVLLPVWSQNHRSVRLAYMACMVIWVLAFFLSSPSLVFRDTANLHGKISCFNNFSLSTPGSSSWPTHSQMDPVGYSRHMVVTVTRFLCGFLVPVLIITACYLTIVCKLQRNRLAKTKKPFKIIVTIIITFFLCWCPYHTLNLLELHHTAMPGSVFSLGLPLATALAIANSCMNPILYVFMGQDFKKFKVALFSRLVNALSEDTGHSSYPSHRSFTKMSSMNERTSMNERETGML
Assay: aequorin-based intracellular Ca2+ release assay
Assay type: cell-based
Protocol: Briefly, ChemerinR-expressing clones are transfected to coexpress mitochondrial apoaequorin and Gα16. Cells are incubated with 5 μM Coelenterazine H (Molecular Probes) for 4 hours at room temperature, washed in DMEM-F12 culture medium and resuspended at a concentration of 0.5×10^6 cells/ml. Cells are then mixed with test agonist peptides and light emission by the aequorin is recorded with a luminometer for 30 sec. Results are expressed as Relative Light Units (RLU). Controls include assays using membranes isolated from cells not expressing ChemerinR (mock-transfected), in order to exclude possible non-specific effects of the candidate compound.
ChemerinR-expres sing clones have been obtained by transfection of CHO-K1 cells to coexpressing mitochondrial apoaequorin and Gα16, limiting dilution and selection by northern blotting. Positive clones were used for screening with human ovarian cancer ascites extracts prepared as described above. […] Briefly, cells were collected from plates in PBS containing 5 mM EDTA, pelleted and resuspended at 5×10^6 cells/ml in DMEM-F12 medium. Cells were incubated with 5 μM Coelenterazine H (Molecular Probes) for 4 hours at room temperature. Cells were then washed in DMEM-F12 medium and resuspended at a concentration of 0.5×10^6 cells/ml. Cells were then mixed with test agonist peptides or plates containing tissue extracts and the light emission was recorded for 30 sec using a Microlumat luminometer (Perkin Elmer). Results are expressed as Relative Light Units (RLU).

Row | Compound | EC50 [µM] | further results
1 | C[C@H](NC(=O)[C@H](CCCNC(=N)N)NC(=O)[C@@H](N)CCC(N)=O)C(=O)NCC(=O)N[C@@H](CCC(=O)O)C(=O)N[C@@H](CC(=O)O)C(=O)N1CCC[C@H]1C(=O)N[C@@H](Cc1c[nH]cn1)C(=O)N[C@@H](CO)C(=O)N[C@@H](Cc1ccccc1)C(=O)N[C@@H](Cc1ccc(O)cc1)C(=O)N[C@@H](Cc1ccccc1)C(=O)N1CCC[C@H]1C(=O)NCC(=O)N[C@@H](CCC(N)=O)C(=O)N[C@@H](Cc1ccccc1)C(=O)O [Human [ΔAla17Phe18Ser19] Chemerin-19] (H-QRAGEDPHSFYFPGQF-OH) | 130 ± 10 | –
2 | C[C@H](NC(=O)[C@H](C)NC(=O)[C@H](Cc1ccccc1)NC(=O)[C@H](CCC(N)=O)NC(=O)CNC(=O)[C@@H]1CCCN1C(=O)[C@H](Cc1ccccc1)NC(=O)[C@@H](N)Cc1ccc(O)cc1)C(=O)N[C@@H](CO)C(=O)O [Human [Ala-8] Chemerin-9] (H-YFPGQFAAS-OH; N-terminus and C-terminus assumed) | – | EC50 (truncated Chemerin peptides, values given in μM, read-out: Mean EC50): 38 ± 7 µM
3 | C[C@H](NC(=O)[C@H](Cc1ccccc1)NC(=O)[C@H](CCC(N)=O)NC(=O)CNC(=O)[C@@H]1CCCN1C(=O)[C@H](Cc1ccccc1)NC(=O)[C@H](Cc1ccc(O)cc1)NC(=O)[C@H](Cc1ccccc1)NC(=O)[C@H](CO)NC(=O)[C@H](Cc1c[nH]cn1)NC(=O)[C@@H]1CCCN1C(=O)[C@H](CC(=O)O)NC(=O)[C@H](CCC(=O)O)NC(=O)CNC(=O)[C@H](C)NC(=O)[C@H](CCCNC(=N)N)NC(=O)[C@@H](N)CCC(N)=O)C(=O)O [Human [ΔPhe18Ser19] Chemerin-19] (H-QRAGEDPHSFYFPGQFA-OH; N-terminus and C-terminus assumed) | 220 | –
4 | C[C@H](NC(=O)[C@H](Cc1ccccc1)NC(=O)[C@H](CCC(N)=O)NC(=O)CNC(=O)[C@@H]1CCCN1C(=O)[C@H](Cc1ccccc1)NC(=O)[C@H](Cc1ccc(O)cc1)NC(=O)[C@H](Cc1ccccc1)NC(=O)[C@H](CO)NC(=O)[C@H](Cc1c[nH]cn1)NC(=O)[C@@H]1CCCN1C(=O)[C@H](CC(=O)O)NC(=O)[C@H](CCC(=O)O)NC(=O)CNC(=O)[C@H](C)NC(=O)[C@H](CCCNC(=N)N)NC(=O)[C@@H](N)CCC(N)=O)C(=O)N[C@@H](Cc1ccccc1)C(=O)O [Human [ΔSer19] Chemerin-19] (H-QRAGEDPHSFYFPGQFAF-OH; N-terminus and C-terminus assumed) | 0.097 ± 0.013 | –
5 | C[C@H](NC(=O)[C@H](Cc1ccccc1)NC(=O)[C@H](CCC(N)=O)NC(=O)CNC(=O)[C@@H]1CCCN1C(=O)[C@H](Cc1ccccc1)NC(=O)[C@H](Cc1ccc(O)cc1)NC(=O)[C@H](Cc1ccccc1)NC(=O)[C@H](CO)NC(=O)[C@H](Cc1c[nH]cn1)NC(=O)[C@@H]1CCCN1C(=O)[C@H](CC(=O)O)NC(=O)[C@H](CCC(=O)O)NC(=O)CNC(=O)[C@H](C)NC(=O)[C@H](CCCNC(=N)N)NC(=O)[C@@H](N)CCC(N)=O)C(=O)N[C@@H](Cc1ccccc1)C(=O)N[C@@H](CO)C(=O)O [Human Chemerin-19] (H-QRAGEDPHSFYFPGQFAFS-OH) | 0.0167 ± 0.0032 | –
6 | C[C@H](NC(=O)[C@H](Cc1ccccc1)NC(=O)[C@H](CCC(N)=O)NC(=O)CNC(=O)[C@@H]1CCCN1C(=O)[C@H](Cc1ccccc1)NC(=O)[C@H](Cc1ccc(O)cc1)NC(=O)[C@@H](N)Cc1ccccc1)C(=O)N[C@@H](Cc1ccccc1)C(=O)N[C@@H](CO)C(=O)O [Human Chemerin-10] (H-FYFPGQFAFS-OH; N-terminus and C-terminus assumed) | 0.0082 ± 0.002 | –
7 | C[C@H](NC(=O)[C@H](Cc1ccccc1)NC(=O)[C@H](CCC(N)=O)NC(=O)CNC(=O)[C@@H]1CCCN1C(=O)[C@H](C)NC(=O)[C@@H](N)Cc1ccc(O)cc1)C(=O)N[C@@H](Cc1ccccc1)C(=O)N[C@@H](CO)C(=O)O [Human [Ala-2] Chemerin-9] (H-YAPGQFAFS-OH; N-terminus and C-terminus assumed) | – | EC50 (truncated Chemerin peptides, values in nM, read-out: Mean EC50): 0.155 ± 0.0416 µM
